Experimental data taken from PMC4515429, “Anti-Biofilm and Immunomodulatory Activities of Peptides That Inhibit Biofilms Formed by Pathogens Isolated from Cystic Fibrosis Patients” (Antibiotics, 2014).
Several values for one entry are separate records, joined by “and”; a condition that tells them apart may be missing. Identical values can stand only once. Where no end group is shown, it is not given here.

Assays:
[1] = test system: B. ambifaria CEP0996 (VII); settings: polypropylene 96-well plate, BM2 glucose, 22 h, 37 °C, crystal violet, absorbance 595, at least two independent experiments
Method: (§1) To assess the biofilm-forming ability of the different clinical isolates, dilutions (1/100) of overnight cultures were incubated in 96-well polypropylene plates using BM2 glucose medium, as previously described.
(§2) Biofilm formation was initially analyzed using a static abiotic solid surface assay as described elsewhere. Dilutions (1/100) of overnight cultures were incubated in BM2 glucose medium (62 mM potassium phosphate buffer (pH 7), 7 mM (NH4)2SO4, 2 mM MgSO4, 10 μM FeSO4, 0.4% (wt/vol) glucose, 0.5% (wt/vol) Casamino Acids) in polypropylene microtiter plates (Fisher Scientific, Waltham, MA, USA) in the presence of the different peptides for 22 h at 37 °C. Planktonic cells were removed and biofilm cells adhering to the side of the tubes were stained with crystal violet, extracted into ethanol, and the optical density at 595 nm (OD595) measured using a microtiter plate reader (Bio-Tek Instruments Inc., Winooski, VT, USA). Peptides were added at time zero (prior to adding the diluted, overnight cultures) at various concentrations, and the decrease in biofilm formation was recorded at 22 h for P. aeruginosa, Burkholderia and Methicillin-resistant Staphylococcus aureus isolates.

[2] = test system: B. cenocepacia 4813 (IIIa); settings: polypropylene 96-well plate, BM2 glucose, 22 h, 37 °C, crystal violet, absorbance 595, at least two independent experiments
Method: as §1, §2

[3] = test system: B. cenocepacia C5424 (IIIa); settings: polypropylene 96-well plate, BM2 glucose, 22 h, 37 °C, crystal violet, absorbance 595, at least two independent experiments
Method: as §1, §2

[4] = test system: B. cenocepacia CEP0055 (IIIb); settings: polypropylene 96-well plate, BM2 glucose, 22 h, 37 °C, crystal violet, absorbance 595, at least two independent experiments
Method: as §1, §2

[5] = test system: B. cenocepacia CEP509 (IIIb); settings: polypropylene 96-well plate, BM2 glucose, 22 h, 37 °C, crystal violet, absorbance 595, at least two independent experiments
Method: as §1, §2

B. dolosa CEP0021 (VI) [6] = settings: polypropylene 96-well plate, BM2 glucose, 22 h, 37 °C, crystal violet, absorbance 595, at least two independent experiments
Method: as §1, §2

[7] = test system: B. multivorans D2661 (Genomovar II); settings: polypropylene 96-well plate, BM2 glucose, 22 h, 37 °C, crystal violet, absorbance 595, at least two independent experiments
Method: as §1, §2

B. stabilis C6061 (IV) [8] = settings: polypropylene 96-well plate, BM2 glucose, 22 h, 37 °C, crystal violet, absorbance 595, at least two independent experiments
Method: as §1, §2

[9] = test system: P. aeruginosa 1172 (Classic); settings: polypropylene 96-well plate, BM2 glucose, 22 h, 37 °C, crystal violet, absorbance 595, at least two independent experiments
Method: as §1, §2

[10] = test system: P. aeruginosa 2631 (Classic); settings: polypropylene 96-well plate, BM2 glucose, 22 h, 37 °C, crystal violet, absorbance 595, at least two independent experiments
Method: as §1, §2

[11] = test system: P. aeruginosa 2639 (Mucoid); settings: polypropylene 96-well plate, BM2 glucose, 22 h, 37 °C, crystal violet, absorbance 595, at least two independent experiments
Method: as §1, §2

[12] = test system: P. aeruginosa 2955 (Dwarf); settings: polypropylene 96-well plate, BM2 glucose, 22 h, 37 °C, crystal violet, absorbance 595, at least two independent experiments
Method: as §1, §2

[13] = test system: P. aeruginosa 3195 (Classic); settings: polypropylene 96-well plate, BM2 glucose, 22 h, 37 °C, crystal violet, absorbance 595, at least two independent experiments
Method: as §1, §2

[14] = test system: P. aeruginosa 3330 (Classic); settings: polypropylene 96-well plate, BM2 glucose, 22 h, 37 °C, crystal violet, absorbance 595, at least two independent experiments
Method: as §1, §2

[15] = test system: P. aeruginosa 7632 (Classic); settings: polypropylene 96-well plate, BM2 glucose, 22 h, 37 °C, crystal violet, absorbance 595, at least two independent experiments
Method: as §1, §2

[16] = test system: P. aeruginosa 7633 (Entire); settings: polypropylene 96-well plate, BM2 glucose, 22 h, 37 °C, crystal violet, absorbance 595, at least two independent experiments
Method: as §1, §2

P. aeruginosa PA01 [17] = settings: polypropylene 96-well plate, BM2 glucose, 22 h, 37 °C, crystal violet, absorbance 595, at least two independent experiments
Method: as §1, §2

P. aeruginosa PA14 [18] = settings: polypropylene 96-well plate, BM2 glucose, 22 h, 37 °C, crystal violet, absorbance 595, at least two independent experiments
Method: as §1, §2

[19] = test system: B. ambifaria CEP0996 (VII); settings: planktonic cells; broth microdilution, BHI, 5 × 10^5 CFU/mL, 37 °C, 18 h; performed at least three times
Method: (§3) In addition to the wild type lab isolates Pseudomonas aeruginosa strains PAO1 and PA14, a variety of cystic fibrosis clinical isolates of P. aeruginosa and Burkholderia cepacia complex strains were utilized (Table 1). Planktonic cells from each of the P. aeruginosa and B. cepacia strains were grown in BM2 glucose or cation-adjusted Mueller-Hinton. The minimal inhibitory concentration (MIC) for peptides in brain-heart infusion (BHI) was assessed by the broth microdilution method with minor modifications for cationic peptides. […] MIC assays were performed in sterile 96-well polypropylene microtiter plates. […] The plates were incubated at 37 °C for 18 h.

[20] = test system: B. cenocepacia 4813 (IIIa); settings: planktonic cells; broth microdilution, BHI, 5 × 10^5 CFU/mL, 37 °C, 18 h; performed at least three times
Method: as §3

[21] = test system: B. cenocepacia C5424 (IIIa); settings: planktonic cells; broth microdilution, BHI, 5 × 10^5 CFU/mL, 37 °C, 18 h; performed at least three times
Method: as §3

[22] = test system: B. cenocepacia CEP0055 (IIIb); settings: planktonic cells; broth microdilution, BHI, 5 × 10^5 CFU/mL, 37 °C, 18 h; performed at least three times
Method: as §3

[23] = test system: B. cenocepacia CEP509 (IIIb); settings: planktonic cells; broth microdilution, BHI, 5 × 10^5 CFU/mL, 37 °C, 18 h; performed at least three times
Method: as §3

B. dolosa CEP0021 (VI) [24] = settings: planktonic cells; broth microdilution, BHI, 5 × 10^5 CFU/mL, 37 °C, 18 h; performed at least three times
Method: as §3

[25] = test system: B. multivorans D2661 (Genomovar II); settings: planktonic cells; broth microdilution, BHI, 5 × 10^5 CFU/mL, 37 °C, 18 h; performed at least three times
Method: as §3

B. stabilis C6061 (IV) [26] = settings: planktonic cells; broth microdilution, BHI, 5 × 10^5 CFU/mL, 37 °C, 18 h; performed at least three times
Method: as §3

[27] = test system: P. aeruginosa 1172 (Classic); settings: planktonic cells; broth microdilution, BHI, 5 × 10^5 CFU/mL, 37 °C, 18 h; performed at least three times
Method: as §3

[28] = test system: P. aeruginosa 2631 (Classic); settings: planktonic cells; broth microdilution, BHI, 5 × 10^5 CFU/mL, 37 °C, 18 h; performed at least three times
Method: as §3

[29] = test system: P. aeruginosa 2639 (Mucoid); settings: planktonic cells; broth microdilution, BHI, 5 × 10^5 CFU/mL, 37 °C, 18 h; performed at least three times
Method: as §3

[30] = test system: P. aeruginosa 2955 (Dwarf); settings: planktonic cells; broth microdilution, BHI, 5 × 10^5 CFU/mL, 37 °C, 18 h; performed at least three times
Method: as §3

[31] = test system: P. aeruginosa 3195 (Classic); settings: planktonic cells; broth microdilution, BHI, 5 × 10^5 CFU/mL, 37 °C, 18 h; performed at least three times
Method: as §3

[32] = test system: P. aeruginosa 3330 (Classic); settings: planktonic cells; broth microdilution, BHI, 5 × 10^5 CFU/mL, 37 °C, 18 h; performed at least three times
Method: as §3

[33] = test system: P. aeruginosa 4020 (Classic); settings: planktonic cells; broth microdilution, BHI, 5 × 10^5 CFU/mL, 37 °C, 18 h; performed at least three times
Method: as §3

[34] = test system: P. aeruginosa 4608 (Mucoid); settings: planktonic cells; broth microdilution, BHI, 5 × 10^5 CFU/mL, 37 °C, 18 h; performed at least three times
Method: as §3

[35] = test system: P. aeruginosa 7632 (Classic); settings: planktonic cells; broth microdilution, BHI, 5 × 10^5 CFU/mL, 37 °C, 18 h; performed at least three times
Method: as §3

[36] = test system: P. aeruginosa 7633 (Entire); settings: planktonic cells; broth microdilution, BHI, 5 × 10^5 CFU/mL, 37 °C, 18 h; performed at least three times
Method: as §3

[37] = test system: P. aeruginosa C2773 (Classic); settings: planktonic cells; broth microdilution, BHI, 5 × 10^5 CFU/mL, 37 °C, 18 h; performed at least three times
Method: as §3

[38] = test system: P. aeruginosa C4276 (Classic); settings: planktonic cells; broth microdilution, BHI, 5 × 10^5 CFU/mL, 37 °C, 18 h; performed at least three times
Method: as §3

[39] = test system: P. aeruginosa C4278 (Mucoid); settings: planktonic cells; broth microdilution, BHI, 5 × 10^5 CFU/mL, 37 °C, 18 h; performed at least three times
Method: as §3

P. aeruginosa PA01 [40] = settings: planktonic cells; broth microdilution, BHI, 5 × 10^5 CFU/mL, 37 °C, 18 h; performed at least three times
Method: as §3

P. aeruginosa PA14 [41] = settings: planktonic cells; broth microdilution, BHI, 5 × 10^5 CFU/mL, 37 °C, 18 h; performed at least three times
Method: as §3

Substance: VRLIVAVRIWRR-NH2 [Peptide 1018]
- Inhibition by 10 µg/mL 1018 (biofilm formation) [1]: 62%
- Inhibition by 10 µg/mL 1018 (biofilm formation) [2]: 52%
- Inhibition by 10 µg/mL 1018 (biofilm formation) [3]: 59%
- Inhibition by 10 µg/mL 1018 (biofilm formation) [4]: 58%
- Inhibition by 10 µg/mL 1018 (biofilm formation) [5]: 61%
- Inhibition by 10 µg/mL 1018 (biofilm formation) (B. dolosa CEP0021 (VI) [6]): 55%
- Inhibition by 10 µg/mL 1018 (biofilm formation) [7]: 75%
- Inhibition by 10 µg/mL 1018 (biofilm formation) (B. stabilis C6061 (IV) [8]): 53%
- Inhibition by 10 µg/mL 1018 (biofilm formation) [9]: 37%
- Inhibition by 10 µg/mL 1018 (biofilm formation) [10]: 44%
- Inhibition by 10 µg/mL 1018 (biofilm formation) [11]: 44%
- Inhibition by 10 µg/mL 1018 (biofilm formation) [12]: 41%
- Inhibition by 10 µg/mL 1018 (biofilm formation) [13]: 37%
- Inhibition by 10 µg/mL 1018 (biofilm formation) [14]: 33%
- Inhibition by 10 µg/mL 1018 (biofilm formation) [15]: 19%
- Inhibition by 10 µg/mL 1018 (biofilm formation) [16]: 49%
- Inhibition by 10 µg/mL 1018 (biofilm formation) (P. aeruginosa PA01 [17]): ~ 50% and 51%
- Inhibition by 10 µg/mL 1018 (biofilm formation) (P. aeruginosa PA14 [18]): ~ 50% and 49%
- MIC [19]: 64 µg/mL
- MIC [20]: >256 µg/mL
- MIC [21]: 128 µg/mL
- MIC [22]: 128 µg/mL
- MIC [23]: >256 µg/mL
- MIC (B. dolosa CEP0021 (VI) [24]): >256 µg/mL
- MIC [25]: >512 µg/mL
- MIC (B. stabilis C6061 (IV) [26]): 64 µg/mL
- MIC [27]: 16 µg/mL
- MIC [28]: 32 µg/mL
- MIC [29]: 32 µg/mL
- MIC [30]: 50 µg/mL
- MIC [31]: 16 µg/mL
- MIC [32]: 16 µg/mL
- MIC [33]: 16 µg/mL
- MIC [34]: 32 µg/mL
- MIC [35]: 16 µg/mL
- MIC [36]: 16 µg/mL
- MIC [37]: 16 µg/mL
- MIC [38]: 32 µg/mL
- MIC [39]: 16 µg/mL
- MIC (P. aeruginosa PA01 [40]): 16 µg/mL
- MIC (P. aeruginosa PA14 [41]): 16 µg/mL
